Results as given in US20100204131A1, “USE OF A PEPTIDE AS A THERAPEUTIC AGENT” (priority 2007, published 2010).
No end group written: not given here.

How the values were obtained:
[1] = test system: HIV-1IIIB; assay: HIV-1 antiviral assay in CEM-SS cells; conditions: CEM-SS cells infected with HIV-1IIIB
[2] = test system: IL-4 spleen cells; assay: Th1/Th2 cytokine profiling assay: IL-4; conditions: 10 micrograms per ml; spleen cells of Ovalbumin-immunized Balb/c mice restimulated with Ovalbumin 10 micrograms/ml; 72 hours; supernatant
Excerpt: (§1) The Balb/c mice (originated in 1923, it is a popular strain and is used in many different research disciplines. Also classified as an inbred from the production of 20 or more successive brother-sister matings, the Balb/c mouse is albino and small in size) were immunized on Days 1, 15, and 29 with Ovalbumin (Ovalbumin is the main protein found in egg white, commonly used to stimulate an immunological reaction in test animals) in PBS (5 micrograms/injection). On day 50, spleens of the mice were harvested (3 weeks after last boost with Ovalbumin). […] Thereafter, additional Ovalbumin was added to the cells at 10 micrograms/ml for in vitro restimulation of the cells. 72 hours later, cell supernatants were harvested and assayed using the Becton Dickinson Mouse Th1/Th2 Cytokine CBA Kit.

[3] = test system: hepatitis B virus (HBV) ayw strain; assay: HBV experimental assay system (HepG2-2.2.15, TaqMan PCR); assay type: cell-based; conditions: 10 micrograms per ml; HepG2-2.2.15 cells; six days; HBV DNA by TaqMan PCR
Excerpt: HepG2-2.2.15 is a stable cell line containing the hepatitis B virus (HBV) ayw strain genome (ATCC Cat. No. CRL-11997). Antiviral compounds blocking any late step of viral replication such as transcription, translation, pregenome encapsidation, reverse transcription, particle assembly and release can be identified and characterized using this cell line. In this assay, an active compound will reduce the production of secreted HBV from cells, measured by utilizing real time quantitative PCR (TaqMan) assay to directly and accurately measure HBV DNA copies.
HepG2-2.2.15 cells were plated in 96-well microtiter plates. After 16-24 hours the confluent monolayer of HepG2-2.2.15 cells was washed and the medium was replaced with complete medium containing test peptides—10 micrograms per ml—in duplicate. […] Six days following the initial administration of the peptides, the cell culture supernatants was collected, treated with pronase and DNAse and then used in a real-time quantitative TaqMan PCR assay. The PCR-amplified HBV DNA was detected in real-time by monitoring increases in fluorescence signals that result from the exonucleolytic degradation of a quenched fluorescence probe molecule that hybridizes to the amplified HBV DNA. […] Antiviral activity was calculated from the reduction in HBV DNA levels (% virus control). […]

[4] = test system: IL-2 spleen cells; assay: Th1/Th2 cytokine profiling assay: IL-2; conditions: 10 micrograms per ml; spleen cells of Ovalbumin-immunized Balb/c mice restimulated with Ovalbumin 10 micrograms/ml; 72 hours; supernatant
Excerpt: as §1

[5] = test system: HUVEC; assay: Endothelial tube formation assay; conditions: 10 micrograms per ml, 20 hours, average tubule length
Procedure: The endothelial tube formation assay is based on the ability of endothelial cells to form three-dimensional capillary-like tubular structures when cultured on a gel of basement membrane extract. […] Pre-labeled HUVEC with Calcein AM were seeded in a 96-well culture plate coated with extracellular metrix (Chemicon international Cat. ECM625) and treated with test peptides—10 micrograms per ml—in full growth medium. Positive control was vehicle only. The endothelial cells were allowed to form tubes foe 20 hours and were then examined under an inverted fluorescent microscope. Duplicate wells for each treatment were photographed and quantitatevily analyzed for an average tubule length using image analysis software ImageProPlus. Raw data were expressed as average tubule lengths in pixels ±standard deviation. Statistic p values were computed using the Student's t-test.

[6] = test system: Primary Human endothelial cells (HUVEC); assay: Endothelial cell migration assay; conditions: 10 micrograms per ml, 22 hours, transwell
Procedure: Primary Human endothelial cells (HUVEC) were seeded in insert chambers with 3 micrometer pore size of multi-transwell plate for 6 hours at 37° C. in Endothelial Cell Basal Medium (EBM) supplemented with 0.1% bovine serum albumin. Thereafter, designated concentration of testing peptides -10 micrograms per ml—was added in duplicate wells. The endothelia were allowed to migrate for 22 hours at 37° C., then, migrated cells were fixed and stained with Hoechst 33342 dye. Images of 3 fields per insert were taken and the number of migrated cells per field were quantified using the ImageProPlus software. Data were analyzed for the average number of the migrated cells and standard deviation of six data points for each treatment condition. […] Statistic p values were computed using the Student's t-test.

[7] = test system: IFNγ spleen cells; assay: Th1/Th2 cytokine profiling assay: IFNγ; conditions: 10 micrograms per ml; spleen cells of Ovalbumin-immunized Balb/c mice restimulated with Ovalbumin 10 micrograms/ml; 72 hours; supernatant
Excerpt: (§2) The Balb/c mice (originated in 1923, it is a popular strain and is used in many different research disciplines. Also classified as an inbred from the production of 20 or more successive brother-sister matings, the Balb/c mouse is albino and small in size) were immunized on Days 1, 15, and 29 with Ovalbumin (Ovalbumin is the main protein found in egg white, commonly used to stimulate an immunological reaction in test animals) in PBS (5 micrograms/injection). On day 50, spleens of the mice were harvested (3 weeks after last boost with Ovalbumin). […] Thereafter, additional Ovalbumin was added to the cells at 10 micrograms/ml for in vitro restimulation of the cells. 72 hours later, cell supernatants were harvested and assayed using the Becton Dickinson Mouse Th1/Th2 Cytokine CBA Kit. This kit can be used to measure Interleukin-2 (IL-2), Interleukin-4 (IL-4), Interleukin-5 (IL-5), Interferon-γ (IFN-γ), and Tumor Necrosis Factor-α (TNF-α) protein levels in a single sample.

[8] = test system: IL-5 spleen cells; assay: Th1/Th2 cytokine profiling assay: IL-5; conditions: 10 micrograms per ml; spleen cells of Ovalbumin-immunized Balb/c mice restimulated with Ovalbumin 10 micrograms/ml; 72 hours; supernatant
Excerpt: as §1

[9] = test system: HCMV strain AD169; assay: HCMV plaque formation assay in MRC-5 cells; conditions: for inhibition of HCMV plaque formation as compared to the virus control: 10 micrograms per ml, MRC-5 cells, 7-10 days
[10] = test system: TNF-a spleen cells; assay: Th1/Th2 cytokine profiling assay: TNF-a; conditions: 10 micrograms per ml; spleen cells of Ovalbumin-immunized Balb/c mice restimulated with Ovalbumin 10 micrograms/ml; 72 hours; supernatant
Excerpt: as §2

CC(C)(C)NC(=O)[C@@H]1CN(Cc2cccnc2)CCN1C[C@@H](O)C[C@@H](Cc1ccccc1)C(=O)N[C@H]1c2ccccc2C[C@H]1O [indinavir]
antiviral activity of positive control compounds [1]: expected levels of antiviral activity

Ser-Tyr-Ser-Met-Glu-His-Phe-Arg-Trp-Gly-Lys-Pro-Val-Gly-Lys-Lys-Arg-Arg-Pro-Val-Lys-Val-Tyr-Pro-OH (SYSMEHFRWGKPVGKKRRPVKVYP-OH) [peptide 1]
IL-4 spleen cells; TH2 response (% of control) [2]: 132.1 % of control | inhibition of HBV replication on tested liver cells [3]: no effect | IL-2 spleen cells (% of control) [4]: 149.2 % of control | inhibition of the tube formation of endothelial cells [5]: 25% | inhibition of the migration of human endothelial cells [6]: did not inhibit | IFNγ spleen cells; TH1 response (% of control) [7]: 103.7 % of control | IL-5 spleen cells; TH2 response (% of control) [8]: 82.6 % of control | inhibition of HCMV plaque formation as compared to the virus control [9]: did not inhibit | TNF-a spleen cells; TH1 response (% of control) [10]: 97.0 % of control

Ala-Ser-Gln-Phe-Glu-Thr-Ser-OH (ASQFETS-OH) [peptide 2]
IL-4 spleen cells; TH2 response (% of control) [2]: 0.0 % of control | inhibition of HBV replication on tested liver cells [3]: no effect | IL-2 spleen cells (% of control) [4]: 72.5 % of control | inhibition of the tube formation of endothelial cells [5]: 27% | inhibition of the migration of human endothelial cells [6]: 28% | IFNγ spleen cells; TH1 response (% of control) [7]: 94.7 % of control | IL-5 spleen cells; TH2 response (% of control) [8]: 57.6 % of control | inhibition of HCMV plaque formation as compared to the virus control [9]: did not inhibit | TNF-a spleen cells; TH1 response (% of control) [10]: 110.7 % of control

Cc1cn([C@H]2C[C@H](N=[N+]=[N-])[C@@H](CO)O2)c(=O)[nH]c1=O [AZT]
antiviral activity of positive control compounds [1]: expected levels of antiviral activity

Nc1nc(O)c2ncn(COC(CO)CO)c2n1 [Ganciclovir, reference compound]
antiviral activity of positive control compound ([9]; positive control, HCMV in MRC-5 cells): expected levels of antiviral activity
